Here are results for 45 compounds from the Deep4Chem optical property database.

A short description of this data set: solvent given as SMILES.

In the case of `COc1ccc2cc(C3=[N+]4C(=Nc5c(-c6ccccc6)cc(-c6ccc7cc(OC)ccc7c6)n5[B-]4(F)F)C(c4ccccc4)=C3)ccc2c1`, the emission maximum (in ClC(Cl)Cl) stood at 733 nm and the emission maximum (in ClCCl) came to 733 nm.
Consider `C(=C(c1ccccc1)c1ccccc1)c1ccc(-c2ccc(-c3nc4c5ccccc5c5ccccc5c4n3-c3cccc(-c4ccc(C=C(c5ccccc5)c5ccccc5)cc4)c3)cc2)cc1`, for which, for the setting “in C1CCOC1”, the emission maximum amounted to 449 nm.
In the case of `C/C(=N\Nc1ccc(C#N)cc1)c1ccccn1`, the emission maximum came to 463 nm (in CC#N); 452 nm (in CCCCCC); 482 nm (in CO); 475 nm (in CS(C)=O); 460 nm (in ClC(Cl)Cl).
The compound `CC(C)[Si](C#Cc1c2cc3ccccc3cc2c(C#C[Si](C(C)C)(C(C)C)C(C)C)c2cc3ccccc3cc12)(C(C)C)C(C)C` returned an emission maximum (in ClCCl) of 649 nm.
As for `COc1cc2c(cc1-c1ccsc1)Cc1c3c(c4c(c1-2)-c1cc(OC)c(-c2ccsc2)cc1C4)C(=O)N(CCC(C)C)C3=O`, the emission maximum (in C1CCOC1) stood at 487 nm.
The compound `CC1(C)c2ccccc2-c2ccc(N(c3ccccc3)c3ccc4c(c3)C(C)(C)c3cc(-c5cc6ccccc6c6c5oc5ccccc56)ccc3-4)cc21` yielded an emission maximum (in C1CCOC1) of 469 nm.
As for `CC(C)(C)c1ccc(-c2cc(-c3ccc(-c4cc(-c5ccc(C(C)(C)C)cc5)c(C#N)s4)s3)sc2C#N)cc1`, the emission maximum (in ClCCl) was 443 nm.
The same measure, in the same setting: the result for `COc1c2ccccc2c(OC)c2c(C#Cc3ccccc3)c3cc4ccccc4cc3c(C#Cc3ccccc3)c12` reads 718 nm.
`COc1cc2cc(C#N)c3ccc4ccccc4c3c2cc1OC` came in with an emission maximum (in ClC(Cl)Cl) of 399 nm.
For the compound `CN1/C(=C/C=C/C2=[N+](C)c3ccccc3C2(C)C)Sc2ccccc21`, the emission maximum (in CS(C)=O) is on record as 569 nm.
Consider `Oc1ccc(-c2ccco2)cc1-c1nc2ccccc2s1`, for which the emission maximum runs as follows: (in CCO) 435 nm; (in ClCCl) 406 nm; (in O) 577 nm.
`CC(C)(C)c1ccc(Oc2cc3c4c(cc(Oc5ccc(C(C)(C)C)cc5)c5c6c(Oc7ccc(C(C)(C)C)cc7)cc7c8c(cc(Oc9ccc(C(C)(C)C)cc9)c(c2c45)c86)C(=O)OC7=O)C(=O)OC3=O)cc1`: the emission maximum (in ClC(Cl)Cl) was 615 nm.
Compound `Clc1cnc2nn3ccccc3c2n1` came in with an emission maximum (in C1CCOC1) of 448 nm.
In the case of `CC(=O)Nc1ccccc1C(=O)OC1CC(C)CCC1C(C)C` (configuration not stated), the emission maximum runs as follows: (in C1CCCCC1) 363 nm; (in CC#N) 369 nm; (in CCO) 370 nm; (in Cc1ccccc1) 368 nm.
In turn, `O=c1oc2cc(S(=O)(=O)O)c3ccccc3c2nc1-c1ccccc1` gave an emission maximum (in CC#N) of 480 nm.
Take `CCCCCCCCCCCCOc1cc2c3cc(OCCCCCCCCCCCC)c(OCCCCCCCCCCCC)cc3c3c(cc(OCCCCCCCCCCCC)c4nc5cc(C#Cc6ccc(OCCCC)cc6)c(C#Cc6ccc(OCCCC)cc6)cc5nc43)c2cc1OCCCCCCCCCCCC`: the emission maximum (in ClC(Cl)Cl) is reported as 661 nm.
As for `CCCCCCCC[n+]1ccc(-c2cc[n+](CCCCCCCC)cc2)cc1`, the emission maximum (in CC#N) worked out at 353 nm.
With `COc1ccc(OC)c(C=O)c1`, the emission maximum came out at 410 nm (in CC(C)=O); 458 nm (in CCCO); 459 nm (in CCO); 458 nm (in CNC=O); 466 nm (in CO); 431 nm (in CS(C)=O). Moreover, the emission maximum reads like this: (in ClC(Cl)Cl) 427 nm; (in NC=O) 464 nm.
For the compound `Cc1c(OCC(=O)O)cc2c3c([nH]c2c1C)C(=O)CCC3`, the emission maximum (in C1COCCO1) came to 403.62 nm; the emission maximum (in CC#N) is given as 419.17 nm; the emission maximum (in CCO) was 461.12 nm; the emission maximum (in CS(C)=O) is given as 427.12 nm; the emission maximum (in O) came out at 507.23 nm.
Turning to `CCCC1=Cc2nc1ccc1[nH]c(cc1CCC)c1nc(c(O)cc3[nH]c2cc3CCC)C(CCC)=C1`, for the setting “in Cc1ccccc1”, the emission maximum is 683 nm.
The same measure, in the same setting: the result for `COc1ccc(C2=C(c3ccc([N+](=O)[O-])cc3)C(c3ccccc3)=[N+]3C2=Nc2c(-c4ccc(OC)cc4)c(-c4ccc([N+](=O)[O-])cc4)c(-c4ccccc4)n2[B-]3(F)F)cc1` reads 688 nm.
With `COc1ccccc1C1=[N+]2C(=C(c3ccccc3)c3c4c(c(-c5ccccc5OC)n3[B-]2(F)F)C2C=CC4CC2)C2=C1C1C=CC2CC1` (configuration not stated), the emission maximum (in ClCCl) came to 587 nm.
`O=S(=O)(/N=c1\oc2cccc3c4c(-c5ccccc5)oc5cccc(c(c1-c1ccccc1)c23)c54)C(F)(F)F`: the emission maximum was found to be 535 nm (in CCCCCC); 582 nm (in CO); 596 nm (in CS(C)=O); 558 nm (in ClC(Cl)Cl); 569 nm (in ClCCl); 601 nm (in O).
`O=c1c2cc(F)ccc2nc2n1[B-](F)(F)[n+]1ccccc1-2` had an emission maximum (in CC#N) of 437 nm and an emission maximum (in ClCCl) of 438 nm.
With `COc1cc2cc(/C=C/c3ccc(/C=C/c4ccc(/C=C(\C#N)C(=O)O)cc4)cc3)c(=O)oc2cc1OC`, the emission maximum (in CC#N) came to 489 nm.
The compound `CCCc1ccc(C#Cc2cc(C#Cc3ccc(N(C)C)cc3)c3ccc4c(C#Cc5ccc(N(C)C)cc5)cc(C#Cc5ccc(CCC)cc5)c5ccc2c3c54)cc1` gave an emission maximum (in ClCCl) of 591 nm.
Turning to `COCCOCCOc1ccc(OCCOCCOC)c(C=O)c1`, the emission maximum reads like this: (in CC(C)(C)O) 444 nm; (in CC(C)CO) 453 nm; (in CC(C)O) 454 nm; (in CCCCO) 456 nm; (in CCCO) 460 nm; (in CCO) 461 nm. For the same compound, the emission maximum reads like this: (in CN(C)C=O) 424 nm; (in CNC=O) 458 nm; (in CO) 468 nm; (in NC=O) 463 nm; (in O) 485 nm.
`CCN(CC)c1ccc2c(c1)oc(=O)c1cc3c(-c4ccccc4)nn(C)c3nc12`: under “in ClCCl”, the emission maximum is reported as 506 nm.
As to `c1ccc(N(c2ccccc2)c2ccc3c(ccc4nc5ccc6cc(N(c7ccccc7)c7ccccc7)ccc6c5nc43)c2)cc1`, the emission maximum (in C1CCCCC1) is 492 nm; the emission maximum (in C1CCOC1) was 552 nm; the emission maximum (in CN(C)C=O) is 626 nm; the emission maximum (in Cc1ccccc1) was 512 nm; the emission maximum (in ClCCl) was determined as 576 nm.
Turning to `CCCCCCCCOc1cc(/C=C/c2ccncc2)c(OCCCCCCCC)cc1/C=C/c1ccncc1`, for the setting “in ClCCl”, the emission maximum was determined as 470 nm.
Take `Nc1cc(N)cc(-c2nc3ccccc3s2)c1`: the emission maximum is, setting by setting: (in C1CCCCC1) 410.5 nm; (in C1COCCO1) 458 nm; (in CC#N) 482 nm; (in CC(C)O) 513 nm; (in CCOC(C)=O) 468 nm; (in CCOCC) 457 nm. For the same compound, the emission maximum by setting is: (in CO) 519 nm; (in O) 541 nm.
Compound `N#Cc1c(N2CCCCC2)cc(-c2ccc3ccc4cccc5ccc2c3c45)c2c1-c1ccccc1C2=O` displayed an emission maximum (in C1CCOC1) of 528 nm.
Take `N#Cc1cc(-c2ccc(/C=C/c3ccc(N(c4ccccc4)c4ccccc4)cc3)c(C#N)c2)ccc1/C=C/c1ccc(N(c2ccccc2)c2ccccc2)cc1`: the emission maximum (in ClCCl) is 541 nm.
On to `COc1cc(OC)c2c(c1)C(=O)c1ccccc1-2`, for which the emission maximum runs as follows: (in C1CCCCC1) 537 nm; (in CC#N) 592 nm.
As to `CCCCCCOc1cc(C=C2C(=O)c3ccccc3C2=O)c(OCCCCCC)cc1C=C1C(=O)c2ccccc2C1=O`, the emission maximum (in ClCCl) came to 622 nm.
On to `Nc1ccccc1/C=C/C(F)(F)F`, for which, under “in C1CCOC1”, the emission maximum is listed as 427 nm.
Regarding `Fc1cc(-c2nc(-c3ccccc3)nc(-c3ccccc3)n2)ccc1-n1c2ccccc2c2c3c(ccc21)C1(c2ccccc2-c2ccccc21)c1ccccc1-3`, the emission maximum was 487.96 nm (in C1CCOC1); 461.11 nm (in C1COCCO1); 533.56 nm (in CN(C)C=O); 448 nm (in Cc1ccccc1); 500.23 nm (in ClC(Cl)Cl).
Compound `CCC1=C(C)C2=C(/C=C/c3ccc(OC)cc3)c3c(C)c(CC)c(C)n3[B-](F)(F)[N+]2=C1C` yielded an emission maximum (in ClCCl) of 542 nm.
As to `c1ccc(-c2nc(-c3ccccc3)nc(-c3cc(-n4c5ccccc5c5ncccc54)c(-n4c5ccccc5c5ccccc54)c(-n4c5ccccc5c5ncccc54)c3)n2)cc1`, the emission maximum was found to be 525.35 nm (in CC#N); 446.05 nm (in CCCCCC); 464.88 nm (in Cc1ccccc1); 502.79 nm (in ClCCl); 455.49 nm (in O=P(c1ccccc1)(c1ccccc1)c1ccccc1Oc1ccccc1P(=O)(c1ccccc1)c1ccccc1).
Turning to `CC(=O)c1nc(-c2ccc(N(c3ccccc3)c3ccccc3)cc2)oc1C`, the emission maximum is listed as 452 nm (in CC#N); 385 nm (in CCCCCC); 468 nm (in CCO); 419 nm (in CCOC(C)=O); 408 nm (in CCOCC); 448 nm (in ClCCl).
For the compound `COc1ccc(-n2c3ccccc3c3c(C)cc4ccccc4c32)cc1`, the emission maximum (in ClCCl) was determined as 367 nm.
Turning to `O=C1c2ccccc2-c2nc3c4ccccc4c4ccccc4c3n21`, the emission maximum (in ClCCl) is given as 616 nm.
The compound `COc1ccc(C#Cc2c(C#Cc3ccc(OC)cc3)c(C#Cc3ccc(OC)cc3)c(C#Cc3ccc(OC)cc3)c(C#Cc3ccc(OC)cc3)c2C#Cc2ccc(OC)cc2)cc1` yielded an emission maximum (in ClCCl) of 466 nm.
Where the note is “in ClC(Cl)Cl”, `O=C1[C@@H]2[C@H](C(=O)N1c1cccc3cc4ccccc4cc13)[C@H]1C[C@@H]2c2c1c(-c1ccccc1)c1ccccc1c2-c1ccccc1` returned an emission maximum of 392 nm.
Turning to `C1=CC2=CC=CC3C=c4c(cc5cccc6cccc4c65)C(=C1)C23` (configuration not stated), for the setting “in ClCCl”, the emission maximum came to 574 nm.
